Drawing on US20060234997A1, “Tetrahydro-pyridoazepin-8-ones and related compounds for the treatment of schizophrenia” (WARNER-LAMBERT COMPANY LLC, priority 2005, published 2006), this text covers Ki for 32 compounds.

Structures are written as SMILES.

The target of this assay is T1, Dopamine D2 receptor (hD2L) (Homo sapiens, UniProt P14416).
T1 construct: expressed in transfected cells; host or cells: CHO cells (CHO-hD2L)
T1 sequence (P14416 whole entry): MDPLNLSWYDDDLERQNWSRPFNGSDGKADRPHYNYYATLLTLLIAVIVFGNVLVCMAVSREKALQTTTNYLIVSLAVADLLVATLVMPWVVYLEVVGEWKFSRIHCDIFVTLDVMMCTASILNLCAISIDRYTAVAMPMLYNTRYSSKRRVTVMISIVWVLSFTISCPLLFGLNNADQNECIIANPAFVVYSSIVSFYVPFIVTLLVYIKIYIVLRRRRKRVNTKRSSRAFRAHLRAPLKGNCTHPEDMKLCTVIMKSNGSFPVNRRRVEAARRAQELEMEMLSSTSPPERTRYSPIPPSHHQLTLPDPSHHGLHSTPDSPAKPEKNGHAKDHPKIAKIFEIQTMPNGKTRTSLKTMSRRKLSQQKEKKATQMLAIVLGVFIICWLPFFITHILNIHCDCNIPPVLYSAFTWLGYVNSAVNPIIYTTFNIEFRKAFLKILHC
Put plainly: Dopamine D2 Receptor Binding Assay ([3H]spiperone, CHO-hD2L membranes). The following applies: [3H]spiperone 0.4 nM, membrane preparation from CHO-hD2L cells. From the text:
The ability of the novel compounds of this invention to bind to the dopamine D2 receptor can be determined using conventional radioligand receptor binding assays. All receptors can be heterologously expressed in cell lines and binding assays can be conducted in membrane preparations from the cell lines using procedures outlined below. IC50 concentrations can be determined by nonlinear regression of concentration-dependent reduction in specific binding. The Cheng-Prussoff equation can be used to convert the IC50 to Ki concentrations.
[^3H]Spiperone binding to a membrane preparation from CHO-hD2L cells was carried out in 250 μl of 50 mM Tris-HCl buffer containing 100 mM NaCl, 1 mM MgCl2 and 1% DMSO at pH 7.4. Duplicate samples containing (in order of addition) the test compounds, 0.4 nM [^3H]spiperone and approximately 12 μg protein were incubated for 120 minutes at room temperature. Bound radioligand was separated by rapid filtration under reduced pressure through Whatman GF/B glass fiber filters previously treated with 0.3% polyethyleneimine. Radioactivity retained on the filter is determined by liquid scintillation spectrophotometry.
The Ki is a dissociation constant, usually derived from enzyme kinetics or from competition with a known ligand. A higher Ki goes with a looser hold on the target. In turn, `COc1ccc2cccc(N3CCN(CCCOc4ccc5c(c4)NC(=O)NCC5)CC3)c2n1` [Example 41, 8-{3-[4-(2-Methoxy-quinolin-8-yl)-piperazin-1-yl]-propoxy}-1,3,4,5-tetrahydro-benzo[d][1,3]diazepin-2-one] displayed a Ki of 1.04 nM.
For `CCc1cccc(N2CCN(CCCCOc3ccc4c(c3)NC(=O)NCC4)CC2)n1` [Example 33] the value was 2.83 nM; for `O=C1NCCc2ccc(OCCCCN3CCN(c4cccc(Cl)c4Cl)CC3)nc2N1` [Example 14, 2-{4-[4-(2,3-Dichloro-phenyl)-piperazin-1-yl]-butoxy}-5,6,7,9-tetrahydro-1,7,9-triaza-benzocyclohepten-8-one], 1 nM; for `O=C1NCCc2ccc(OCCCN3CCN(c4cccc5ccccc45)CC3)cc2N1` [Example 43, 8-[3-(4-Naphthalen-1-yl-piperazin-1-yl)-propoxy]-1,3,4,5-tetrahydro-benzo[d][1,3]diazepin-2-one], 3.24 nM.
The result for `CC1(C)Cc2ccc(OCCCCN3CCN(c4cccc5ccccc45)CC3)cc2NC(=O)N1` [Example 59, 4,4-Dimethyl-8-[4-(4-naphthalen-1-yl-piperazin-1-yl)-butoxy]-1,3,4,5-tetrahydro-benzo[d][1,3]diazepin-2-one] reads 3 nM; that for `N#Cc1ccc2cccc(N3CCN(CCCCOc4ccc5c(n4)NC(=O)NCC5)CC3)c2c1` [Example 22, 8-{4-[4-(8-Oxo-6,7,8,9-tetrahydro-5H-1,7,9-triaza-benzocyclohepten-2-yloxy)-butyl]-piperazin-1-yl}-naphthalene-2-carbonitrile], 0.4 nM; that for `O=C1NCCc2ccc(OCCCCN3CCN(c4ccc(F)c(Cl)c4Cl)CC3)cc2N1` [Example 36, 8-{4-[4-(2,3-Dichloro-4-fluoro-phenyl)-piperazin-1-yl]-butoxy}-1,3,4,5-tetrahydro-benzo[d][1,3]diazepin-2-one], 3 nM.
For `O=C1CCCc2ccc(OCCCCN3CCN(c4cccc5ccccc45)CC3)nc2N1` [Example 2, 2-[4-(4-Naphthalen-1-yl-piperazin-1-yl)-butoxy]-5,6,7,9-tetrahydro-pyrido[2,3-b]azepin-8-one] the value was 3.87 nM; for `Cc1c(F)ccc(N2CCN(CCCCOc3ccc4c(c3)NC(=O)NCC4)CC2)c1Cl` [Example 30, 8-{4-[4-(2-Chloro-4-fluoro-3-methyl-phenyl)-piperazin-1-yl]-butoxy}-1,3,4,5-tetrahydro-benzo[d][1,3]diazepin-2-one], 2 nM.
Regarding `O=C1NCCc2ccc(OCCCN3CCN(c4cccc5ccc(F)cc45)CC3)cc2N1` [Example 44, 8-{3-[4-(7-Fluoro-naphthalen-1-yl)-piperazin-1-yl]-propoxy}-1,3,4,5-tetrahydro-benzo[d][1,3]diazepin-2-one], the Ki is 5.44 nM.
For `O=C1NCCc2ccc(OCCCCN3CCN(c4cccc5c4COCC5)CC3)cc2N1` [Example 45, 8-[4-(4-Isochroman-8-yl-piperazin-1-yl)-butoxy]-1,3,4,5-tetrahydro-benzo[d][1,3]diazepin-2-one] the value was 6.14 nM; for `O=C1CCCc2ccc(OCCCCN3CCN(c4cccc5c4CCC5)CC3)nc2N1` [Example 6, 2-[4-(4-Indan-4-yl-piperazin-1-yl)-butoxy]-5,6,7,9-tetrahydro-pyrido[2,3-b]azepin-8-one], 1 nM.
For `O=C1CCCc2ccc(OCCCCN3CCN(c4cccc5c4OCCC5)CC3)nc2N1` [Example 4, 2-[4-(4-Chroman-8-yl-piperazin-1-yl)-butoxy]-5,6,7,9-tetrahydro-pyrido[2,3-b]azepin-8-one] the value was 2 nM.
For `O=C1NCCc2ccc(OCCCCN3CCN(c4cccc5c(F)cccc45)CC3)cc2N1` [Example 40, 8-{4-[4-(5-Fluoro-naphthalen-1-yl)-piperazin-1-yl]-butoxy}-1,3,4,5-tetrahydro-benzo[d][1,3]diazepin-2-one] the value was 11.4 nM.
With `O=C1NCCc2ccc(OCCCCN3CCN(c4cccc5c4CCCC5)CC3)nc2N1` [Example 16, 2-{4-[4-(5,6,7,8-Tetrahydro-naphthalen-1-yl)-piperazin-1-yl]-butoxy}-5,6,7,9-tetrahydro-1,7,9-triaza-benzocyclohepten-8-one], affinity was put at a Ki of 1.41 nM.
In turn, `O=C1NCCc2ccc(OCCCCN3CCN(c4cccc5nsnc45)CC3)cc2N1` [Example 39, 8-{4-[4-(2,1,3-benzothiadiazol-4-yl)piperazin-1-yl]butoxy}-1,3,4,5-tetrahydro-2H-1,3-benzodiazepin-2-one] came in with a Ki of 2.6 nM.
The result for `O=C1CCCc2ccc(OCCCCN3CCN(c4cccc5c4OCCCO5)CC3)nc2N1` [Example 9, 2-{4-[4-(3,4-Dihydro-2H-benzo[b][1,4]dioxepin-6-yl)-piperazin-1-yl]-butoxy}-5,6,7,9-tetrahydro-pyrido[2,3-b]azepin-8-one] reads 2 nM; that for `CC1(C)Cc2ccc(OCCCN3CCN(c4cccc5ccccc45)CC3)cc2NC(=O)N1` [Example 60, 4,4-Dimethyl-8-[3-(4-naphthalen-1-yl-piperazin-1-yl)-propoxy]-1,3,4,5-tetrahydro-benzo[d][1,3]diazepin-2-one], 9.38 nM; that for `O=C1NCCc2ccc(OCCCCN3CCN(c4cccc5ccccc45)CC3)nc2N1` [Example 15, 2-[4-(4-Naphthalen-1-yl-piperazin-1-yl)-butoxy]-5,6,7,9-tetrahydro-1,7,9-triaza-benzocyclohepten-8-one], 1 nM.
For `O=C1CCCc2ccc(OCCCCN3CCN(c4cccc(Cl)c4Cl)CC3)nc2N1` [Example 3, 2-{4-[4-(2,3-dichloro-phenyl)-piperaxin-1-yl]-butoxy}-5,6,7,9-tetrahydro-pyrido[2,3-b]azepin-8-one] the value was 5.48 nM.
`CC(C)c1cccc(N2CCN(CCCCOc3ccc4c(c3)NC(=O)NCC4)CC2)n1` [Example 34, 8-{4-[4-(6-Isopropyl-pyridin-2-yl)-piperazin-1-yl]-butoxy}-1,3,4,5-tetrahydro-benzo[d][1,3]diazepin-2-one] registered a Ki of 2.68 nM.
Compound `COc1ccc2cccc(N3CCN(CCCCOc4ccc5c(n4)NC(=O)NCC5)CC3)c2c1` [Example 21, 2-{4-[4-(7-Methoxy-naphthalen-1-yl)-piperazin-1-yl]-butoxy}-5,6,7,9-tetrahydro-1,7,9-triaza-benzocyclohepten-8-one] had a Ki of 0.4 nM.
For `O=C1NCCc2ccc(OCCCCN3CCN(c4cccc5c4OCCC5)CC3)nc2N1` [Example 17, 2-[4-(4-Chroman-8-yl-piperazin-1-yl)-butoxy]-5,6,7,9-tetrahydro-1,7,9-triaza-benzocyclohepten-8-one] the value was 1 nM; for `O=C1NCCc2ccc(OCCCCN3CCN(c4ccc(F)cc4Cl)CC3)cc2N1` [Example 35, 8-{4-[4-(2-Chloro-4-fluoro-phenyl)-piperazin-1-yl]-butoxy}-1,3,4,5-tetrahydro-benzo[d][1,3]diazepin-2-one], 3 nM; for `O=C1CCCc2ccc(OCCCCN3CCN(c4cccc5ccc(F)cc45)CC3)nc2N1` [Example 8, 2-{4-[4-(7-Fluoro-naphthalen-1-yl)-piperazin-1-yl]-butoxy}-5,6,7,9-tetrahydro-pyrido[2,3-b]azepin-8-one], 1 nM.
Compound `N#Cc1ccc2cccc(N3CCN(CCCCOc4ccc5c(n4)NC(=O)CCC5)CC3)c2c1` [Example 10, 8-{4-[4-(8-Oxo-6,7,8,9-tetrahydro-5H-pyrido[2,3-b]azepin-2-yloxy)-butyl]-piperazin-1-yl}-naphthalene-2-carbonitrile] registered a Ki of 2.79 nM.
For `CN1C(=O)CCc2cccc(N3CCN(CCCCOc4ccc5c(n4)NC(=O)NCC5)CC3)c21` [Example 23, 2-{4-[4-(1-Methyl-2-oxo-1,2,3,4-tetrahydro-quinolin-8-yl)-piperazin-1-yl]-butoxy}-5,6,7,9-tetrahydro-1,7,9-triaza-benzocyclohepten-8-one] the value was 3 nM.
The result for `O=C1CCCc2ccc(OCCCCN3CCN(c4cccc5c4CCCC5)CC3)nc2N1` [Example 5, 2-{4-[4-(5,6,7,8-Tetrahydro-naphthalen-1-yl)-piperazin-1-yl]-butoxy}-5,6,7,9-tetrahydro-pyrido[2,3-b]azepin-8-one] reads 2.45 nM.
Consider `O=C1NCCc2ccc(OCCCCN3CCN(c4cccc5cccc(F)c45)CC3)cc2N1` [Example 42, 8-{4-[4-(8-Fluoro-naphthalen-1-yl)-piperazin-1-yl]-butoxy}-1,3,4,5-tetrahydro-benzo[d][1,3]diazepin-2-one], for which the affinity corresponds to a Ki of 2.32 nM.
The result for `O=C1CCCc2ccc(OCCCCN3CCN(c4cccc5c4OCC5)CC3)nc2N1` [Example 7, 2-{4-[4-(2,3-Dihydro-benzofuran-7-yl)-piperazin-1-yl]-butoxy}-5,6,7,9-tetrahydro-pyrido[2,3-b]azepin-8-one] reads 3.46 nM; that for `Cc1cc(N2CCN(CCCCOc3ccc4c(c3)NC(=O)NCC4)CC2)c(Cl)cc1F` [Example 31, 8-{4-[4-(2-Chloro-4-fluoro-5-methyl-phenyl)-piperazin-1-yl]-butoxy}-1,3,4,5-tetrahydro-benzo[d][1,3]diazepin-2-one], 6 nM; that for `CN1C(=O)CCc2cccc(N3CCN(CCCCOc4ccc5c(n4)NC(=O)CCC5)CC3)c21` [Example 11, 2-{4-[4-(1-Methyl-2-oxo-1,2,3,4-tetrahydro-quinolin-8-yl)-piperazin-1-yl]-butoxy}-5,6,7,9-tetrahydro-pyrido[2,3-b]azepin-8-one], 18.9 nM.
